Data from patent US20200016277A1, “NANOPARTICLES FOR ACTIVE AGENT DELIVERY TO BRAIN CANCERS” (MUSC FOUNDATION FOR RESEARCH DEVELOPMENT, priority 2017, published 2020).

System: U87 cells
Experiment: Cytotoxicity of TMZ micelles (Guava ViaCount cell viability assay)
Procedure: Three cytotoxicity experiments, using Guava Via-Count Assay and flow cytometry (EMD Millipore, MA, USA), were performed using increasing concentrations of free TMZ, MTMZ and PMTMZ over increasing time. Cells (30,000 cells per well) were plated in 24-well plates and incubated overnight at 37° C. with 5% CO2. A TMZ solution (1 mg ml^−1) in DMSO was prepared and stored at 4° C. The stock solution was diluted with alpha-MEM and used to prepare free TMZ at increasing concentrations of 0-100 04. Independently, both 1 μM and 10 04 samples of PMTMZ and MTMZ were prepared with alpha-MEM. The triplicate wells were treated with concentrations at a constant volume of 200 μl per well. After 24 h, cell viability was performed using Guava ViaCount Assay and flow cytometry (EMD Millipore). The remaining wells were retreated with the appropriate concentrations over a 10 day period. Viability data was collected and analyzed.

For `Cn1nnc2c(C(N)=O)ncn2c1=O` [free TMZ, temozolomide], the “Cells killed (cell death)” value (U87, 1 μM, between 1 and 5 days) was “approximately 4%” and the Cell death (U87, 10 or 100 μM, between 24 and 72 h) was about 2%.
